Reference: PubChem BioAssay (NCI)
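Results reflect a 48-hour exposure of cells in 96-well plates to compound at five concentrations. The concentration for 50% growth inhibition is given as GI50. TGI marks complete inhibition of growth.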

Key:
Test in all cases: growth of human tumour cells (NCI), 48 h
[1] = test system: 786-0 renal
[2] = test system: HCT-15 colon
[3] = test system: HL-60(TB) leukemia
[4] = test system: HT29 colon
[5] = test system: SK-MEL-2 melanoma
[6] = test system: SR leukemia
[7] = test system: TK-10 renal
[8] = test system: SNB-75 CNS

Compound	TGI [1] [µM]	TGI [2] [µM]	TGI [3] [µM]	TGI [4] [µM]	TGI [5] [µM]	TGI [6] [µM]	TGI [7] [µM]	TGI [8] [µM]	GI50 [1] [µM]	GI50 [2] [µM]	GI50 [3] [µM]	GI50 [4] [µM]	GI50 [5] [µM]	GI50 [8] [µM]	GI50 [6] [µM]	GI50 [7] [µM]
COC(=O)C(CC(=O)Nc1ccc(Cl)c(Cl)c1)C(=O)C(=O)NC1C2CC3CC(C2)CC1C3 (stereo not given)	> 100	> 100	> 100	> 100	> 100	> 100	> 100									
N#CC(C#N)=C1SCC(=O)CS1	> 100	> 100	> 100	> 100		> 100	> 100	> 100								
O=C(N/C(=C\c1ccc(Oc2ccc(Cl)c(Cl)c2)cc1)c1nc2ccccc2[nH]1)c1ccccc1	33	66.6		32.6	37.7	85	57.7									
C/C(=C\CC[C@]1(C)OC(C)(C)OC1CC/C(C)=C/CO[Si](c1ccccc1)(c1ccccc1)C(C)(C)C)CC/C=C/CO[Si](C)(C)C(C)(C)C (stereo not given in full)	> 100	> 100	> 100	> 100	> 100		> 100	> 100								
O=C(/C=C1/NC(=O)CS1)Nc1ccccc1	> 100		> 100	> 100	> 100		> 100	> 100								
O=C1C[C@H]2CC3(CC[C@H]2CN1)OCCO3	> 100	> 100	> 100	> 100	> 100		> 100	> 100								
C[CH2][Sn]([Cl])([Cl])[CH2]C	> 56	> 60.9	> 100	> 100	37.4	> 100	32.4	> 61.7	28.9	> 43.2	> 75.9	55.2	17	24.9	25.3	18.3
COc1cc([C@@H]2OC(=O)C3C2C(=O)O[C@H]3c2cc(OC)c(OC)c(OC)c2)cc(OC)c1OC (stereo not given in full)	> 100	> 100	> 100	> 100	> 100		> 100	> 100								
C[CH2][Sn]([CH2]C)([O]C(=O)c1cccc(F)c1)[O][Sn]([CH2]C)([CH2]C)[O]C(=O)c1cccc(F)c1	29.3	43.3	96.5	> 100	30.3	> 100	33.8	31.9	15.8	21	26.6	35.4	16.4	16.9	28	19.6
Cc1cccc2c1C(=O)OC2(C)c1cccc2ccccc12 (stereo not given)	> 100	> 100	46.2	> 100	> 100	68.7	95.2	87.7								
Clc1ccc(SCCCCCCCCCCSc2ccc(Cl)cc2)cc1	> 70.4	> 75.9	> 100	> 100	> 70.4		> 77.9	> 100								
CC1(C)C2C/C(=C\c3ccccc3)C(=O)C1C2 (stereo not given)	> 100	> 100	> 100	> 100	> 100		> 100	97.5								
COc1cc(C(=O)CC2(O)C(=O)Nc3c(Cl)cc(Cl)cc32)ccc1O (stereo not given)	> 100	> 100	> 100	> 100	> 100		> 100	93								
COc1ccc2c(c1)CC1c3c(cc4c(c3-2)OCO4)CCN1C (stereo not given)	> 100	> 100		> 100	72.3		71.3	56.9								
Cc1ccc(/C=C2\CCCC\C2=N\O)cc1	> 100	> 100	30.7	> 100			> 100	81.3								
CCOC(=O)NC(=O)c1cn(CCN2CCN(C(=O)NCCCCCCNC(=O)N3CCN(CCn4cc(C(=O)NC(=O)OCC)c(=O)n(CCN(CC)CC)c4=O)CC3)CC2)c(=O)n(CCC(CC)CC)c1=O	> 100	> 100	> 100	> 100	> 100	> 100	> 100	> 100								
C=CCN=C1NC(=O)C(CC(=O)Nc2ccc(C)cc2)S1 (stereo not given)	> 100	> 100	> 100	> 100	> 100		> 100	> 100								
